Measurements taken from patent US7196192B2, “28-epirapalogs” (Ariad Gene Therapeutics, Inc., priority 1999, dated 2007).
Like-named read-outs stand apart in the source and are kept apart here.

Tests used:
FKBP = FKBP (Homo sapiens, UniProt P62942); assay: FKBP competitive binding assay based on fluorescence polarization (FP); conditions: competitive FP binding
Method: A Competitive Binding FP Assay is described in detail in WO99/36553 and WO96/41865. That assay permits the in vitro measurement of an IC50 value for a given compound which reflects its ability to bind to an FKBP-protein in competition with a labeled FKBP ligand, such as, for example, FK506.
(§1) A diverse group of C7-modified 28-epirapalogs were prepared as described in Example 4.

[1] = target: T1, transcriptional switch components containing FKBP and 2098L mutant FRB domains (Homo sapiens, UniProt P42345+P62942); assay: transcription assay in engineered HD1080 cells expressing SEAP (txn 2098L); type: cell-based; conditions: for TXN 2098L peak relative to rapamycin peak: superscript mark on EC50 cell
T1 construct: transcriptional switchcomponents containing FKBP and 2098L mutant FRB domains, respectively; fused on or other part: The two switch components are separate chimeric proteins; Neither is given for this cell line
T1 sequence (P62942 2-108 limits assumed, stated change not applied, other chains not shown): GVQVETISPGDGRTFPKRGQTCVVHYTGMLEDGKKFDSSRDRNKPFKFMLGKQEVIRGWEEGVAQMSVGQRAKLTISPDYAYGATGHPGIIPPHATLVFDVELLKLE
How it was run: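 HT1080-type engineered HD1080 cells constitutively express FKBP and 2098L-mutant FRB switch components and express SEAP upon compound-induced multimerization. Compound added to medium; secreted SEAP reporter measured after incubation. EC50 derived.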

murine splenocyte = murine splenocyte assay for immunosuppressive activity; type: cell-based; conditions: read-out: Splenocyte IC50
Method: 3. Conventional murine splenocyte assay for immunosuppressive activity.
as §1

[2] = methods of Example 2.5, read-out: FKBP IC50
[3] = cellular transcription assay, methods of Example 2.5, read-out: TXN 2098L EC50
[4] = mouse splenocyte assay, methods of Example 2.5
[5] = FKBP IC50 (nM), methods of Example 2.5
[6] = read-out: TXN 2098L EC50, cellular transcription assay, methods of Example 2.5
[7] = Mus musculus, Splenocyte, mouse splenocyte assay, methods of Example 2.5

Chain of FKBP (P62942 whole entry): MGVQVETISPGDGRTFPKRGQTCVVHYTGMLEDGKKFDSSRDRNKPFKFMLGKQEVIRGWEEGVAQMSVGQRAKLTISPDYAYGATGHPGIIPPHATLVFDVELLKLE

Row | IC50 (FKBP; [2]) [nM] | EC50 [1, 3] [nM] | IC50 (murine splenocyte; [4]) [nM] | SMILES | IC50 (FKBP; [5]) [nM] | EC50 [1, 6] [nM] | IC50 (murine splenocyte; [7]) [nM] | other results
1 | – | – | – | COCO[C@@H]1CC[C@@H](C[C@@H](C)[C@@H]2CC(=O)[C@H](C)/C=C(\C)[C@H](O)[C@@H](OC)C(=O)[C@H](C)C[C@H](C)/C=C/C=C/C=C(\C)[C@@H](OC)C[C@@H]3CC[C@@H](C)[C@@](O)(O3)C(=O)C(=O)N3CCCC[C@H]3C(=O)O2)C[C@H]1OC [43-O-MOM-28-epirapamycin] | – | – | – | IC50 (FKBP; fluorescein-labelled FK506 probe (AP1491), read-out: FKBP binding IC50): 27 nM; EC50 ([1]; HD1080 cells, FKBP and 2098L mutant FRB switch, SEAP reporter, read-out: txn 2098L EC50): 7 nM; IC50 (murine splenocyte; Mus musculus, Splenocyte, murine splenocyte assay, immunosuppressive activity): 0.6 to 1.6 nM
2 | 120 | 9 | 255 | CCOC(=O)N(C)C1CC2CCC(C)C(O)(O2)C(=O)C(=O)N2CCCCC2C(=O)OC(C(C)CC2CCC(O)C(OC)C2)CC(=O)C(C)C=C(C)C(O)C(OC)C(=O)C(C)CC(C)C=CC=CC=C1C (single isomer, unassigned) [28-epi-7R-N-methyl-ethylcarbamate] | – | – | – | –
3 | – | – | – | CCOC(=O)N[C@H]1C[C@@H]2CC[C@@H](C)[C@@](O)(O2)C(=O)C(=O)N2CCCC[C@H]2C(=O)O[C@H]([C@H](C)C[C@@H]2CC[C@@H](O)[C@H](OC)C2)CC(=O)[C@H](C)/C=C(\C)[C@H](O)[C@@H](OC)C(=O)[C@H](C)C[C@H](C)/C=C/C=C/C=C/1C [28-epi-7S-ethylcarbamate] | 13 | 10 | > 5000 | –
4 | – | – | – | CCN([C@H]1C[C@@H]2CC[C@@H](C)[C@@](O)(O2)C(=O)C(=O)N2CCCC[C@H]2C(=O)O[C@H]([C@H](C)C[C@@H]2CC[C@@H](O)[C@H](OC)C2)CC(=O)[C@H](C)/C=C(\C)[C@H](O)[C@@H](OC)C(=O)[C@H](C)C[C@H](C)/C=C/C=C/C=C/1C)S(C)(=O)=O [28-epi-7S-N-Et-methanesulfonamide] | 31 | 8 | 1360 | TXN 2098L peak relative to rapamycin peak [1]: (+) (peak was >125% rapamycin peak)
5 | – | – | – | CCN([C@@H]1C[C@@H]2CC[C@@H](C)[C@@](O)(O2)C(=O)C(=O)N2CCCC[C@H]2C(=O)O[C@H]([C@H](C)C[C@@H]2CC[C@@H](O)[C@H](OC)C2)CC(=O)[C@H](C)/C=C(\C)[C@H](O)[C@@H](OC)C(=O)[C@H](C)C[C@H](C)/C=C/C=C/C=C/1C)S(C)(=O)=O [28-epi-7R-N-Et-methanesulfonamide] | 31 | 8 | 189 | TXN 2098L peak relative to rapamycin peak [1]: (+) (peak was >125% rapamycin peak)
6 | 4.6 | 24 | 653 | COc1ccccc1COC1CC2CCC(C)C(O)(O2)C(=O)C(=O)N2CCCCC2C(=O)OC(C(C)CC2CCC(O)C(OC)C2)CC(=O)C(C)C=C(C)C(O)C(OC)C(=O)C(C)CC(C)C=CC=CC=C1C (single isomer, unassigned) [28-epi-7R-2′-methoxybenzyloxy] | – | – | – | –
7 | 109 | 15 | 587 | COC1CC(CC(C)C2CC(=O)C(C)C=C(C)C(O)C(OC)C(=O)C(C)CC(C)C=CC=CC=C(C)C(N(C)C(=O)OCC(C)C)CC3CCC(C)C(O)(O3)C(=O)C(=O)N3CCCCC3C(=O)O2)CCC1O (single isomer, unassigned) [28-epi-7R-N-Me-isobutylcarbamate] | – | – | – | –
8 | 16 | 24 | – | CO[C@@H]1C[C@H](C[C@@H](C)[C@@H]2CC(=O)[C@H](C)/C=C(\C)[C@H](O)[C@@H](OC)C(=O)[C@H](C)C[C@H](C)/C=C/C=C/C=C(\C)[C@@H](NS(C)(=O)=O)C[C@@H]3CC[C@@H](C)[C@@](O)(O3)C(=O)C(=O)N3CCCC[C@H]3C(=O)O2)CC[C@H]1O [28-epi-7S-methanesulfonamide] | – | – | 7 | –
9 | – | – | – | C=CCO[C@H]1C[C@@H]2CC[C@@H](C)[C@@](O)(O2)C(=O)C(=O)N2CCCC[C@H]2C(=O)O[C@H]([C@H](C)C[C@@H]2CC[C@@H](O)[C@H](OC)C2)CC(=O)[C@H](C)/C=C(\C)[C@H](O)[C@@H](OC)C(=O)[C@H](C)C[C@H](C)/C=C/C=C/C=C/1C [28-epi-7S-allyloxy] | 18 | 8 | 1800 | –

Row | SMILES | IC50 (FKBP; [2]) [nM] | EC50 [1, 3] [nM] | IC50 (murine splenocyte; [4]) [nM] | IC50 (FKBP; [5]) [nM] | EC50 [1, 6] [nM] | IC50 (murine splenocyte; [7]) [nM] | other results
10 | COc1ccc(C2CC3CCC(C)C(O)(O3)C(=O)C(=O)N3CCCCC3C(=O)OC(C(C)CC3CCC(O)C(OC)C3)CC(=O)C(C)C=C(C)C(O)C(OC)C(=O)C(C)CC(C)C=CC=CC=C2C)c(OC)c1 (stereo not drawn) [28-epi-7R-dimethoxyphenyl] | 54 | 26 | 22 to 28 | – | – | – | –
11 | CO[C@@H]1C[C@H](C[C@@H](C)[C@@H]2CC(=O)[C@H](C)/C=C(\C)[C@H](O)[C@@H](OC)C(=O)[C@H](C)C[C@H](C)/C=C/C=C/C=C(\C)[C@@H](NS(=O)(=O)N(C)c3ccccc3)C[C@@H]3CC[C@@H](C)[C@@](O)(O3)C(=O)C(=O)N3CCCC[C@H]3C(=O)O2)CC[C@H]1O [28-epi-7S-methylphenylsulfamide] | 11 | 28 | 564 | – | – | – | –
